{
  "source": "patent US11925612B2",
  "about": "“Bactericidal and virucidal pharmaceutical composition” (Quimica Luar SRL, priority 2015, dated 2024)",
  "key": {"Klebsiella pneumoniae": {"tested_on": "Klebsiella pneumoniae", "assay": "Bactericidal test: CFU count after incubation in PBS buffer", "type": "cell-based", "details": "4-hour contact at 37° C., control 1,000,000, Example 8"}, "P. aeruginosa": {"tested_on": "P. aeruginosa", "assay": "Bactericidal test: CFU count after incubation in PBS buffer", "type": "cell-based, Pseudomonas aeruginosa", "details": "for P. aeruginosa count (UFC/mL ± 10) As a function of treatment time: 37° C., control 2,000,000, Example 6; for Colony count (UFC/mL ± 10) Pseudomonas: Example 9; for Colony count (UFC/mL ± 10) P. aeruginosa: 4-hour at 37° C., control 3,000,000, Example 15"}},
  "data": [
    {"smiles": "CC(C)Cc1ccc(C(C)C(=O)O)cc1.[Na]", "note": "(stereo not drawn) [IBU-Na, SODIUM IBUPROFEN]", "values": [
      {"measurement": "Colony count (UFC/mL ± 10)", "setting": "Klebsiella pneumoniae; IBU-Na 50 mM", "value": 600, "unit": "UFC/mL"},
      {"measurement": "Colony count (UFC/mL ± 10)", "setting": "Klebsiella pneumoniae; IBU-Na 100 mM", "value": 10, "unit": "UFC/mL"},
      {"measurement": "P. aeruginosa (UFC/mL ± 10)", "setting": "P. aeruginosa; IBU 10 mM, 4 h at 37° C., control 1,700,000, Example 4", "value": "760,000 UFC/mL"},
      {"measurement": "P. aeruginosa (UFC/mL ± 10)", "setting": "P. aeruginosa; IBU 20 mM y NaCl (1M), preincubated 1 hour with human Albumin 5 mg/mL, 4 hours at 37° C., control 1,000,000, Example 16", "value": 1500, "unit": "UFC/mL"},
      {"measurement": "P. aeruginosa (UFC/mL ± 10)", "setting": "P. aeruginosa; IBU 20 mM, 4 h at 37° C., control 1,700,000, Example 4", "value": "300,000 UFC/mL"},
      {"measurement": "P. aeruginosa (UFC/mL ± 10)", "setting": "P. aeruginosa; IBU 50 mM, 4 h at 37° C., control 1,700,000, Example 4", "value": 50, "unit": "UFC/mL"},
      {"measurement": "P. aeruginosa count (UFC/mL ± 10) As a function of treatment time", "setting": "P. aeruginosa; IBU-Na 1 mM, 1 hour", "value": "2,000,000 UFC/mL"},
      {"measurement": "P. aeruginosa count (UFC/mL ± 10) As a function of treatment time", "setting": "P. aeruginosa; IBU-Na 1 mM, 4 hours", "value": "2,000,000 UFC/mL"},
      {"measurement": "P. aeruginosa count (UFC/mL ± 10) As a function of treatment time", "setting": "P. aeruginosa; IBU-Na 1 mM, Overnight (O.N.)", "value": "2,000,000 UFC/mL"},
      {"measurement": "P. aeruginosa (UFC/mL ± 10)", "setting": "P. aeruginosa; IBU-Na 1 mM, Population A (control 200,000), 4 h at 37° C., Example 5", "value": "200,000 UFC/mL"},
      {"measurement": "P. aeruginosa (UFC/mL ± 10)", "setting": "P. aeruginosa; IBU-Na 1 mM, Population B (control 20,000), 4 h at 37° C., Example 5", "value": "20,000 UFC/mL"},
      {"measurement": "P. aeruginosa (UFC/mL ± 10)", "setting": "P. aeruginosa; IBU-Na 1 mM, Population C (control 2,000), 4 h at 37° C., Example 5", "value": "2,000 UFC/mL"},
      {"measurement": "P. aeruginosa count (UFC/mL ± 10) As a function of treatment time", "setting": "P. aeruginosa; IBU-Na 2.5 mM, 1 hour", "value": "2,000,000 UFC/mL"},
      {"measurement": "P. aeruginosa count (UFC/mL ± 10) As a function of treatment time", "setting": "P. aeruginosa; IBU-Na 2.5 mM, Overnight (O.N.)", "value": "2,000,000 UFC/mL"},
      {"measurement": "P. aeruginosa (UFC/mL ± 10)", "setting": "P. aeruginosa; IBU-Na 5 mM + ClNa (1M), 1 hour, 37° C. pH 6.5, control 800,000, Example 13", "value": "16,000 UFC/mL"},
      {"measurement": "P. aeruginosa (UFC/mL ± 10)", "setting": "P. aeruginosa; IBU-Na 5 mM + ClNa (1M), 2 hours, 37° C. pH 6.5, control 800,000, Example 13", "value": "13,000 UFC/mL"},
      {"measurement": "P. aeruginosa (UFC/mL ± 10)", "setting": "P. aeruginosa; IBU-Na 5 mM + ClNa (1M), 4 hours, 37° C. pH 6.5, control 800,000, Example 13", "value": "8,500 UFC/mL"},
      {"measurement": "Colony count (UFC/mL ± 10) Pseudomonas", "setting": "P. aeruginosa; IBU-Na 5 mM, 4 hours at 37° C., control 1,700,000", "value": "1,700,000 UFC/mL"},
      {"measurement": "P. aeruginosa (UFC/mL ± 10)", "setting": "P. aeruginosa; IBU-Na 5 mM, Population A (control 200,000), 4 h at 37° C., Example 5", "value": "150,000 UFC/mL"},
      {"measurement": "P. aeruginosa (UFC/mL ± 10)", "setting": "P. aeruginosa; IBU-Na 5 mM, Population B (control 20,000), 4 h at 37° C., Example 5", "value": "17,000 UFC/mL"},
      {"measurement": "P. aeruginosa (UFC/mL ± 10)", "setting": "P. aeruginosa; IBU-Na 10 mM + ClNa (1M), 1 hour, 37° C. pH 6.5, control 800,000, Example 13", "value": 30, "unit": "UFC/mL"},
      {"measurement": "P. aeruginosa (UFC/mL ± 10)", "setting": "P. aeruginosa; IBU-Na 10 mM + ClNa (1M), 2 hours, 37° C. pH 6.5, control 800,000, Example 13", "value": 30, "unit": "UFC/mL"},
      {"measurement": "Colony count (UFC/mL ± 10) Pseudomonas", "setting": "P. aeruginosa; IBU-Na 10 mM, 4 hours at 37° C., control 1,700,000", "value": "760,000 UFC/mL"},
      {"measurement": "P. aeruginosa count (UFC/mL ± 10) As a function of treatment time", "setting": "P. aeruginosa; IBU-Na 10 mM, Overnight (O.N.)", "value": "900,000 UFC/mL"},
      {"measurement": "P. aeruginosa (UFC/mL ± 10)", "setting": "P. aeruginosa; IBU-Na 10 mM, Population B (control 20,000), 4 h at 37° C., Example 5", "value": "3,500 UFC/mL"},
      {"measurement": "P. aeruginosa (UFC/mL ± 10)", "setting": "P. aeruginosa; IBU-Na 10 mM, Population C (control 2,000), 4 h at 37° C., Example 5", "value": 800, "unit": "UFC/mL"},
      {"measurement": "P. aeruginosa (UFC/mL ± 10)", "setting": "P. aeruginosa; IBU-Na 10 mM, Without ionic strength, 4 hours at 37° C., control 1,700,000, Example 12", "value": "760,000 UFC/mL"},
      {"measurement": "Colony count (UFC/mL ± 10) P. aeruginosa", "setting": "P. aeruginosa; IBU-Na 12.5 mM + ClNa (1M)", "value": 250, "unit": "UFC/mL"},
      {"measurement": "P. aeruginosa (UFC/mL ± 10)", "setting": "P. aeruginosa; IBU-Na 20 mM, Population A (control 200,000), 4 h at 37° C., Example 5", "value": "20,000 UFC/mL"},
      {"measurement": "P. aeruginosa (UFC/mL ± 10)", "setting": "P. aeruginosa; IBU-Na 20 mM, Population B (control 20,000), 4 h at 37° C., Example 5", "value": 400, "unit": "UFC/mL"},
      {"measurement": "P. aeruginosa (UFC/mL ± 10)", "setting": "P. aeruginosa; IBU-Na 20 mM, Population C (control 2,000), 4 h at 37° C., Example 5", "value": 50, "unit": "UFC/mL"},
      {"measurement": "Colony count (UFC/mL ± 10) P. aeruginosa", "setting": "P. aeruginosa; IBU-Na 25 mM + ClNa (1M)", "value": 10, "unit": "UFC/mL"},
      {"measurement": "P. aeruginosa count (UFC/mL ± 10) As a function of treatment time", "setting": "P. aeruginosa; IBU-Na 25 mM, 1 hour", "value": "500,000 UFC/mL"},
      {"measurement": "Colony count (UFC/mL ± 10) Pseudomonas", "setting": "P. aeruginosa; IBU-Na 25 mM, 4 hours at 37° C., control 1,700,000", "value": "200,000 UFC/mL"},
      {"measurement": "P. aeruginosa count (UFC/mL ± 10) As a function of treatment time", "setting": "P. aeruginosa; IBU-Na 25 mM, 4 hours", "value": "250,000 UFC/mL"},
      {"measurement": "P. aeruginosa (UFC/mL ± 10)", "setting": "P. aeruginosa; IBU-Na 25 mM, Without ionic strength, 4 hours at 37° C., control 1,700,000, Example 12", "value": "200,000 UFC/mL"},
      {"measurement": "P. aeruginosa (UFC/mL ± 10)", "setting": "P. aeruginosa; IBU-Na 30 mM, Population A (control 200,000), 4 h at 37° C., Example 5", "value": 500, "unit": "UFC/mL"},
      {"measurement": "P. aeruginosa (UFC/mL ± 10)", "setting": "P. aeruginosa; IBU-Na 30 mM, Population B (control 20,000), 4 h at 37° C., Example 5", "value": 40, "unit": "UFC/mL"},
      {"measurement": "P. aeruginosa (UFC/mL ± 10)", "setting": "P. aeruginosa; IBU-Na 40 mM, Population A (control 200,000), 4 h at 37° C., Example 5", "value": 100, "unit": "UFC/mL"}
    ]}
  ]
}
